According to US12240857B2 (priority 2017, dated 2025):
Where two headings read alike, the source gives them in different places.

How the values were obtained:
[1] = tested on: EBOV mucin-domain-deleted glycoprotein pseudotyped VSV; assay: microbe, parasite or virus in culture; assay type: cell-based, Zaire ebolavirus; conditions: Zaire ebolavirus, Vero, read-out: EC50 EBOV
[2] = tested on: BDBV mucin-domain-deleted glycoprotein pseudotyped VSV; assay: microbe, parasite or virus in culture; assay type: cell-based, Bundibugyo ebolavirus; conditions: Vesicular stomatitis virus, Vero, read-out: EC50 BDBV
[3] = in vitro; conditions: African green monkey, CC50

## O=C(C1C2CC3CC(C2)CC1C3)N1CCN(Cc2ccccc2)CC1 (stereo not drawn) [Example A31]
[1]
  EC50: > 10000 nM
[2]
  EC50: > 10000 nM
[3]
  CC50: > 10000 nM

## O=C(N1CCC2(CCNC2)C1)C12CC3CC(C1)CC(c1ccccc1)(C3)C2 (stereo not drawn) [Example A64]
[1]
  EC50: 710 nM
[2]
  EC50: 180 nM
[3]
  CC50: > 10000 nM

## C[C@H]1C[C@H](NC(=O)C23CC4CC(C)(C2)CC(c2ccccc2)(C4)C3)CCN1 (stereo partly drawn) [Example A107]
[1]
  EC50: 46 nM
[2]
  EC50: 300 nM
[3]
  CC50: 14700 nM

## O=C(CNC(=O)C12CC3CC(C1)CC(c1ccccc1)(C3)C2)N[C@@H]1CCN(Cc2ccccc2)C1 [Example A7]
[1]
  EC50: 480 nM
[2]
  EC50: 840 nM
[3]
  CC50: > 10000 nM

## CC12CC3CC(C(=O)NC4CCNCC4(C)C)(C1)CC(c1ccccc1)(C3)C2 (stereo not drawn) [Example A111]
[1]
  EC50: 18 nM
[2]
  EC50: 150 nM
[3]
  CC50: 10700 nM

## COC(=O)c1ccc(COc2ccccc2CN2CCC(NC(=O)CNC(=O)CC34CC5CC(CC(C5)C3)C4)CC2)cc1 [Example A55]
[1]
  EC50: 2900 nM
[2]
  EC50: 2600 nM
[3]
  CC50: > 10000 nM

## C[C@H]1CNCCN1C(=O)C12CC3CC(C)(C1)CC(c1ccccc1)(C3)C2 (stereo partly drawn) [Example A83]
[1]
  EC50: 100 nM
[2]
  EC50: 180 nM
[3]
  CC50: 12900 nM

## CN1CCN(CC23CC4CC(C2)CC(c2ccccc2)(C4)C3)CC1 [Example C1]
[1]
  EC50: 180 nM
[2]
  EC50: 206 nM
[3]
  CC50: 5800 nM

## CN(C(=O)C12CC3CC(C)(C1)CC(c1ccccc1)(C3)C2)C1CCNCC1 (stereo not drawn) [Example A104]
[1]
  EC50: 60 nM
[2]
  EC50: 220 nM
[3]
  CC50: 66000 nM

## CC(C)C12CC3CC(C(=O)N[C@H]4CC[C@H](N)CC4)(CC(c4ccccc4)(C3)C1)C2 (stereo partly drawn) [Example A105]
[1]
  EC50: 140 nM
[2]
  EC50: 1050 nM
[3]
  CC50: 35000 nM

## N[C@H]1CC[C@H](NC(=O)C23CC4CC2CC(c2ccccc2)(C4)C3)CC1 (stereo partly drawn) [Example A87]
[1]
  EC50: 140 nM
[2]
  EC50: 190 nM
[3]
  CC50: 1400 nM

## Cc1cccc(C23CC4CC(CC(C(=O)N[C@H]5CC[C@H](N)CC5)(C4)C2)C3)c1 [Example A100]
[1]
  EC50: 220 nM
[2]
  EC50: 180 nM
[3]
  CC50: 6300 nM

## NCCOc1ccc(C23CC4CC(CC(C4)C2)C3)cc1 [Example D34, 1-[4-(2-aminoethoxy)phenyl] adamantane]
[1]; 24 h
  EC50: 430 nM
[2]; 24 h
  EC50: 1160 nM
[3]
  CC50: 3700 nM

## CN1CCC[C@@H](NC(=O)C23CC4CC(C2)CC(c2ccccc2)(C4)C3)C1 [Example A38]
[1]
  EC50: 250 nM
[2]
  EC50: 190 nM
[3]
  CC50: > 10000 nM

## CCN(CC(O)COCCC12CC3CC(CC(C3)C1)C2)C1CCCCC1 (stereo not drawn) [Example D12, N-{3-[2-(adamantan-1-yl)ethoxy]-2-hydroxypropyl}-N-ethylcyclo hexanamine]
[1]; 24 h
  EC50: 610 nM
[2]; 24 h
  EC50: 490 nM
[3]
  CC50: > 3000 nM

## CN1CC[C@@H](NC(=O)C23CC4CC(C)(C2)CC(c2ccccc2)(C4)C3)C1 (stereo partly drawn) [Example A41]
[1]
  EC50: 103 nM
[2]
  EC50: 180 nM
[3]
  CC50: 13600 nM

## O=C(CC12CC3CC(C1)CC(c1ccccc1)(C3)C2)N[C@@H]1CCN(Cc2ccccc2)C1 [Example A24]
[1]
  EC50: 290 nM
[2]
  EC50: 290 nM
[3]
  CC50: 7200 nM

## O=C(NC1CCNCC1)C12CC3CC(C1)CC(c1ccc(Cl)cc1)(C3)C2 [Example A69]
[1]
  EC50: 220 nM
[2]
  EC50: 240 nM
[3]
  CC50: 22400 nM

## CC1CCN(C[C@H](O)COCC23CC4CC(C2)CC(c2ccccc2)(C4)C3)CC1 [Example C10, (2S)-1-(4-methylpiperidin-1-yl)-3-[(3-phenyladamantan-1-yl)methoxy]propan-2-ol]
[1]
  EC50: 190 nM
[2]
  EC50: 170 nM
[3]
  CC50: 3600 nM

## CC1CCN(C[C@H](O)COc2ccc(C34CC5CC(CC(c6ccccc6)(C5)C3)C4)cc2)CC1 [Example C18, (2S)-1-(4-methylpiperidin-1-yl)-3-[4-(3-phenyladamantan-1-yl)phenoxy]propan-2-ol]
[1]
  EC50: 80 nM
[2]
  EC50: 260 nM
[3]
  CC50: 2700 nM

## COc1ccc(CNCCC23CC4CC(CC(C4)C2)C3)cc1 [Example D4, [2-(adamantan-1-yl)ethyl][(4-methoxyphenyl)methyl]amine]
[1]; 24 h
  EC50: 2190 nM
[2]; 24 h
  EC50: 2720 nM
[3]
  CC50: > 10000 nM

## CCC12CC3CC(C1)CC(c1ccc(OC[C@@H](O)CN4CCC(C)CC4)cc1)(C3)C2 [Example C19, (S)-1-(4-(−3-ethyladamantan-1-yl)phenoxy)-3-(4-methylpiperidin-1-yl)propan-2-ol]
[1]
  EC50: 110 nM
[2]
  EC50: 200 nM
[3]
  CC50: > 100000 nM

## CC1CCN(C[C@H](O)COCCC23CC4CC(C2)CC(c2ccccc2)(C4)C3)CC1 [Example C12, (2S)-1-(4-methylpiperidin-1-yl)-3-[2-(3-phenyladamantan-1-yl)ethoxy]propan-2-ol]
[1]
  EC50: 270 nM
[2]
  EC50: 190 nM
[3]
  CC50: 1200 nM
